Values of other authors, collected in patent US20170065667A1, “METHODS FOR SYNCHRONIZATION OF ESTROUS CYCLES AND OVULATION FOR FIXED TIME ARTIFICIAL INSEMINATION IN CATTLE” (Parnell Technologies Pty Ltd., priority 2014, published 2017).

System: lactating dairy cows
Details: dinoprost 25 mg, cloprostenol 0.5 mg; cited from earlier work

## CCCCC[C@H](O)/C=C/[C@@H]1[C@@H](C/C=C\CCCC(=O)O)[C@@H](O)C[C@H]1O [dinoprost]
  percentage of cows with complete CL regression: 80%
